Where “and” joins values, the source holds several entries; their conditions need not be identical. Equal entries are not always repeated. Where two headings read alike, the source gives them in different places.
Columns and labels:
[1] = system: spleen lymphocytes; conditions: 4 days
Protocol: (§1) The purpose of this assay is to challenge lymphocytes in microcultures with one or more polyclonal mitogens at concentrations that will induce mitogenesis within 72 hours of stimulation.
(§2) In the mouse model, spleens are removed from different strains of mice and the spleen cells are teased free and suspended in RPMI-1640 tissue culture medium at a concentration of usually […]. These cells are dispensed at a concentration of 5.0×10^5 cells per microculture well in a 96 well flat bottom 96 well tissue culture plate. All testing of the compounds of this invention or mitogens are done in replicates of 10. The cells are then treated with PHA, Con-A, specific antigens, or buffer only. If in vitro testing is done, varying concentrations of the compounds of this invention or buffer only are added to the cells as well. After treatment with the mitogens and/or compounds of this invention, the cells are incubated for 72 hours. The response of these cells to mitogens and/or the compounds of this invention is assessed using ^14 C-thymidine labeling on the fourth day at a concentration of 0.01 μCi/well. The labeled cells are harvested using a lymphocyte harvestor and placed onto fibrous paper discs. A scintillation cocktail is added to vials containing the discs and the results are obtained using a LKB-liquid scintillation counter (Model 1216/Rackbeta II). The data is expressed as a ratio of the cpm of the mitogen stimulated group to the control (nonmitogen) treated group=lymphocyte stimulation index (LSI).
(§3) The lymphocyte stimulation assay may be performed directly on spleen cells obtained from various strains of mice not treated with the compounds of this invention or on lymphocytes obtained from human […]. […] Alternatively, the mice may be treated in vivo with the compounds of this invention by intraperitoneal multi-dose schedules, followed by sacrifice and harvesting spleen lymphocytes. These cells are then tested for their response to polyclonal mitogens or specific antigens used to immunize the mice. In this system however, no additional compound is added to the in vitro lymphocyte stimulation assay system.
Two strains of mice, C57BL/6 and BALB/c, are treated 4 days with i.p. administration of either 50, 100, 200, or 400 mg/kg of Cpd. 1, or just buffer. This is followed on the fifth day by a lymphocyte stimulation assay.

[2] = system: C57BL/6 mice; conditions: for Number Dead on Day 3: ten mice per dose
Protocol: Single dose LD50 in C57BL/6 mice for Cpd. 1 is determined following the method of Spearman and Karber described in Basic Exercises in Immunochemistry, 1979. Briefly, 0.5 ml of each dose is given to each of ten mice. The survivors are counted after 3 days and the LD50 is calculated using the following formula: [formula] where D=fold diferences between doses, R=total number dead, and N=total number of animals tested.

[3] = system: L-1210 leukemia cells; experiment: Treatment of L-1210 leukemia in BDF1 mice (T/C ratios); assay type: in vivo, mouse
Text: Mice of the BDF1 strain are given in i.p. inoculation of 10^6 L-1210 leukemia cells on day 0. Twenty-four hours later, groups of 7 mice each are started on a nine day treatment regimen of various doses of the compounds of this invention. The experiment is continued according to the guidelines provided under the National Cancer Institute protocol for screening new anti-cancer agents and T/C ratios (median or mean survival time of treated groups over median or mean survival time of controls) are calculated. A T/C value ≥1.25 (or 125%) is considered significant anticancer activity.
(§4) Mice of the BDF1 strain, inoculated with L-1210 leukemia cells, are treated for seven days with either 25, 50, 100, 200 or 400 mg/kg of Cpd. 1 or just buffer. The National Cancer Institute protocol for screening new anti-cancer agents is followed and T/C ratios are calculated.
as §4, with “either 100” for “either 25, 50, 100, 200 or 400”, “Cpd. 1, 20 mg/kg of 5-flourouracil (5-FU), a known anti-cancer agent,” for “Cpd. 1”

[4] = system: spleen lymphocytes; conditions: for stimulation of DNA synthesis (in words): BSA
Text: The effect of the compounds of this invention on the immune response to specific antigens involves immunization of mice with specific antigens such as bovine serum albumin (BSA) or keyhole limpet hemocyanin (KLH). Following immunization, it is possible to assess the cell-mediated or humoral (antibody) immune response to these antigens by various methods:
(1) Lymphocyte stimulation assays can be performed using varying concentrations of the specific antigens as mitogens in the lymphocyte stimulation microculture system described above. The only difference is that the incubation period is extended to five days instead of three as for the polyclonal mitogens.
Mice of the C57BL/6 strain are given i.p. injections of either 50, 100, 200 or 400 mg/kg of Cpd. 1 or buffer for twelve days (days 1-12). An antigen, bovine serum albumin (BSA), is administered intraperitoneally with Freund's Complete Adjuvant (FCA) on days 1, 7 and 14. Blood samples are taken for assay of the antibody response on days 0, 5, 13, and 19.

[5] = system: spleen lymphocytes; conditions: 7 days
Protocol: as §1, §2, §3
Two strains of mice, C57BL/6 and BDF1 are treated for seven days with i.p. administration of either 25, 50, 100, 200, or 400 mg/kg of Cpd. 1 or just buffer. This is followed on the eighth day by a lymphocyte stimulation assay.

Cc1ccc(C2(O)C(=O)OC3C(O)COC32O)o1.Cc1ccc(C2(O)C(=O)OC3C(O)COC32O)o1.O=C1CCC(=O)O1 (stereo not shown) [Cpd. 1, 2-furylbutyrolactone:succinic anhydride]
Lymphocyte Stimulation Index, Con-A ([1]; 50 mg/kg i.p.): 20.5 | Lymphocyte Stimulation Index, Control (no mitogen) ([1]; 50 mg/kg i.p.): 1.4 | Lymphocyte Stimulation Index, PHA ([1]; 50 mg/kg i.p.): 6.44 | Lymphocyte Stimulation Index, Con-A ([1]; 100 mg/kg i.p.): 21.8 | Lymphocyte Stimulation Index, Control (no mitogen) ([1]; 100 mg/kg i.p.): 1.0 | Lymphocyte Stimulation Index, PHA ([1]; 100 mg/kg i.p.): 5.24 | Lymphocyte Stimulation Index, Con-A ([1]; 200 mg/kg i.p.): 20.5 | Lymphocyte Stimulation Index, Control (no mitogen) ([1]; 200 mg/kg i.p.): .76 | Lymphocyte Stimulation Index, Con-A ([1]; 400 mg/kg i.p.): 18.7 | Lymphocyte Stimulation Index, Control (no mitogen) ([1]; 400 mg/kg i.p.): .90 | Lymphocyte Stimulation Index, PHA ([1]; 400 mg/kg i.p.): 6.71 | Number Dead on Day 3 ([2]; 1,000 mg/kg single i.p.): 0 | Number Dead on Day 3 ([2]; 2,000 mg/kg single i.p.): 0 | Number Dead on Day 3 ([2]; 4,000 mg/kg single i.p.): 7 | Number Dead on Day 3 ([2]; 8,000 mg/kg single i.p.): 10 | Number Dead on Day 3 ([2]; 16,000 mg/kg single i.p.): 10 | LD50 ([2]; purified Cpd. 1, single i.p. injection, 4320 min): > 3000 mg/kg | Median Survival Time ([3]; 25 mg/kg, seven days): 20 days | T/C ([3]; 25 mg/kg, seven days): 1.00 | Median Survival Time ([3]; 50 mg/kg, seven days): 21 days | T/C ([3]; 50 mg/kg, seven days): 1.05 | Median Survival Time ([3]; 100 mg/kg, seven days): 30 days | T/C ([3]; 100 mg/kg, seven days): 1.50 and 1.40 | Median Survival Time ([3]; 100 mg/kg, seven days (Table 25)): 28 | Median Survival Time ([3]; 200 mg/kg, seven days): 30 days | T/C ([3]; 200 mg/kg, seven days): 1.50 | Median Survival Time ([3]; 400 mg/kg, seven days): 25 days | T/C ([3]; 400 mg/kg, seven days): 1.25 | Lymphocyte Stimulation Index ([4]; 50 mg/kg, BSA 0 μg/well, Day 19): .26 | stimulation of DNA synthesis (in words) ([4]; 50 mg/kg, day 19): This effect has waned by day 19 | Lymphocyte Stimulation Index ([4]; 100 mg/kg, BSA 0 μg/well, Day 19): 4.1 | Lymphocyte Stimulation Index ([4]; 100 mg/kg, BSA 0.01 μg/well, Day 13): 9.8 | Lymphocyte Stimulation Index ([4]; 100 mg/kg, BSA 1.0 μg/well, Day 19): .26 | Lymphocyte Stimulation Index ([4]; 200 mg/kg, BSA 0 μg/well, Day 19): 0.42 | Lymphocyte Stimulation Index ([4]; 200 mg/kg, BSA 1 μg/well, Day 13): 14.0 | Lymphocyte Stimulation Index ([4]; 400 mg/kg, BSA 0 μg/well, Day 19): 5.0 | stimulation of DNA synthesis (in words) ([4]; day 13): Only the 50 mg/kg dose shows significant stimulation of DNA synthesis on day 13 compared to controls | Lymphocyte Stimulation Index, Con-A ([5]; 25 mg/kg i.p.): 4.3 | Lymphocyte Stimulation Index, Control (buffer, pH 8.05) ([5]; 25 mg/kg i.p.): 0.8 | Lymphocyte Stimulation Index, PHA ([5]; 25 mg/kg i.p.): 13.8 | Lymphocyte Stimulation Index, Con-A ([5]; 50 mg/kg i.p.): 21.6 | Lymphocyte Stimulation Index, Control (buffer, pH 8.05) ([5]; 50 mg/kg i.p.): 0.9 | Lymphocyte Stimulation Index, PHA ([5]; 50 mg/kg i.p.): 52.1 | Lymphocyte Stimulation Index, Con-A ([5]; 100 mg/kg i.p.): 17.9 | Lymphocyte Stimulation Index, Control (buffer, pH 8.05) ([5]; 100 mg/kg i.p.): 0.7 | Lymphocyte Stimulation Index, PHA ([5]; 100 mg/kg i.p.): 48.7 | Lymphocyte Stimulation Index, Con-A ([5]; 200 mg/kg i.p.): 2.9 | Lymphocyte Stimulation Index, Control (buffer, pH 8.05) ([5]; 200 mg/kg i.p.): 0.8 | Lymphocyte Stimulation Index, PHA ([5]; 200 mg/kg i.p.): 7.8 | Lymphocyte Stimulation Index, Con-A ([5]; 400 mg/kg i.p.): 0.9 | Lymphocyte Stimulation Index, Control (buffer, pH 8.05) ([5]; 400 mg/kg i.p.): 0.9 | Lymphocyte Stimulation Index, PHA ([5]; 400 mg/kg i.p.): 1.1
